Experiments:
panelists = assay: Cooling intensity: panel tasting of aqueous solutions against menthol at 2 ppm; format: in vivo, human; details: for Concentration: aqueous solution with cooling intensity similar to or slightly higher than menthol at 2 ppm, tasted by small group of panelists
panelist = assay: Application in toothpaste: cooling sensation after brushing; format: in vivo, human; details: toothgel base with 0.10 g of 10% by weight ethanol solution and 0.30 g saccharin; teeth brushed, mouth rinsed with water
Experimental: 0.10 g of (1R,2S,5R)—N-(2-hydroxy-3-phenoxypropyl)-2-isopropyl-5-methylcyclohexane-carboxamide (at 10% by weight solved in ethanol) and 0.30 g saccharin were mixed in a toothgel base.
A piece of the thus prepared toothpaste was put on a toothbrush and a panelist's teeth were brushed. The mouth was rinsed with water and the water spat out. […] The cooling sensation was perceived for over 50 minutes.

`COCCNC(=O)[C@@H]1C[C@H](C)CC[C@H]1C(C)C` [(1R,2S,5R)-2-isopropyl-N-(2-methoxyethyl)-5-methylcyclohexanecarboxamide] gave a Concentration (panelists) of 1.0 ppm.
For `CC(C)OCCCNC(=O)[C@@H]1C[C@H](C)CC[C@H]1C(C)C` [(1R,2S,5R)-N-(3-isopropoxypropyl)-2-isopropyl-5-methylcyclohexanecarboxamide], the Concentration (panelists) was 0.1 ppm.
With `CC(C)[C@@H]1CC[C@@H](C)C[C@H]1C(=O)NCCCOc1ccccn1` [Ex. 2.5, (1R,2S,5R)-2-isopropyl-5-methyl-N-(3-(pyridin-2-yloxy)propyl)cyclohexane-carboxamide] the Concentration (panelists) was 0.02 ppm.
With `CC(C)[C@@H]1CC[C@@H](C)C[C@H]1C(=O)NCCOc1ccccc1` [Ex. 2.7, (1R,2S,5R)-2-isopropyl-5-methyl-N-(2-phenoxyethyl)cyclohexanecarboxamide] the Concentration (panelists) was 0.01 ppm and the “cooling intensity relative to prior art compound (1R,2S,5R)-2-isopropyl-N-(2-methoxyethyl)-5-methylcyclohexane-carboxamide” value (panelists; compared with the prior art compound) was “about 100 times higher”.
With `Cc1ccccc1OCCCNC(=O)[C@@H]1C[C@H](C)CC[C@H]1C(C)C` [Example 1, (1R,2S,5R)-2-isopropyl-5-methyl-N-(3-(o-tolyloxy)propyl)cyclohexane-carboxamide] the melting point was 89.4 to 91.1 °C.
In the case of `CC(C)[C@@H]1CC[C@@H](C)C[C@H]1C(=O)NCC(O)COc1ccccc1` (stereo partly drawn) [Example 2.2, (1R,2S,5R)—N-(2-hydroxy-3-phenoxypropyl)-2-isopropyl-5-methylcyclohexane-carboxamide], the “cooling sensation felt by the panelist” value (panelist) was “long lasting cooling sensation” and the “duration of perceived cooling sensation” value (panelist) was “over 50 minutes”.
In the case of `CC1CCC(C(C)C)C(O)C1` (stereo not shown) [I-Menthol], the Concentration (panelists) was 2.0 ppm.
Work on `CCNC(=O)C1CC(C)CCC1C(C)C` (stereo not shown) [WS-3, N-ethyl p-menthanecarboxamide] yielded a Concentration (panelists) of 1.5 ppm.

Source: patent US8377422B2, “Carboxamide derivatives having cooling properties” (Givaudan S.A., priority 2007, dated 2013)
